Ki data for 37 compounds are collected here from US9283222B2 (priority 2006, dated 2016).

In the experiment the target is Recombinant Human Poly(ADP-Ribose) Polymerase (PARP), PARP-1 (Homo sapiens (Human), UniProt P09874). Particulars: read-out: PARP-1 (Ki); Table 1; text calls the values EC50s.
Chain of Recombinant Human Poly(ADP-Ribose) Polymerase (PARP), PARP-1 (P09874 whole entry): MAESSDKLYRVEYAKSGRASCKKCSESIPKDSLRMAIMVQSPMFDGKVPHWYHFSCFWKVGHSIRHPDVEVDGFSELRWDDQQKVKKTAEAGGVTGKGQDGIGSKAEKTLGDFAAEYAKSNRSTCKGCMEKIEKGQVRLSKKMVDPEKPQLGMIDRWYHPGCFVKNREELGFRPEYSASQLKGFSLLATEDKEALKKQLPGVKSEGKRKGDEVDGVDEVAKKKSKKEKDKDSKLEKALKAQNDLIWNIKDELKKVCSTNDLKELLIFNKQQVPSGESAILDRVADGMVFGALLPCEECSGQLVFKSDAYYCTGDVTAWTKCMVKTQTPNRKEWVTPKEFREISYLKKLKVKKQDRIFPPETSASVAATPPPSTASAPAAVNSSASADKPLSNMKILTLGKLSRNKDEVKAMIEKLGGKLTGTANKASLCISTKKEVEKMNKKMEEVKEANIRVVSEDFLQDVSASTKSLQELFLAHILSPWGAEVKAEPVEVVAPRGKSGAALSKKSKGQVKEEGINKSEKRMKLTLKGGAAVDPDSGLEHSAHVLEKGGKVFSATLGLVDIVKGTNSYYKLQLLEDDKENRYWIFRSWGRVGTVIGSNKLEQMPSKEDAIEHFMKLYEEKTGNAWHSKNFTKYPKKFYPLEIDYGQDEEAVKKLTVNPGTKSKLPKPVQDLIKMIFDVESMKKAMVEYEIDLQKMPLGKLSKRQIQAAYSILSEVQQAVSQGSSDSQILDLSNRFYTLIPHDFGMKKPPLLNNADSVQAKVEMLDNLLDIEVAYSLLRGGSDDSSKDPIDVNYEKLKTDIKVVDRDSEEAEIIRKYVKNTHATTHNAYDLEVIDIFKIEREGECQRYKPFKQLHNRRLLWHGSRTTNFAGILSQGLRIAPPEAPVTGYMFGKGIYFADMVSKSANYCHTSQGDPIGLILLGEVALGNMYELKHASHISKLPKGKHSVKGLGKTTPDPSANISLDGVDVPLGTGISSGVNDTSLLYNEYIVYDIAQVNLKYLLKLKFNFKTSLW

One may read the Ki as a dissociation constant, usually derived from enzyme kinetics or from competition with a known ligand. With `O=C(Nc1cccc(Cc2n[nH]c(=O)c3c2CCCC3)c1)c1ccsc1` [Example 197, N-(3-((4-oxo-3,4,5,6,7,8-hexahydrophthalazin-1-yl)methyl)phenyl)thiophene-3-carboxamide], the Ki is 146 nM.
Turning to `O=C(c1ccc2ccccc2n1)N1CCN(C(=O)c2cc(Cc3n[nH]c(=O)c4c3CCCC4)ccc2F)CC1` [Example 739, 4-(4-fluoro-3-{[4-(quinolin-2-ylcarbonyl)piperazin-1-yl]carbonyl}benzyl)-5,6,7,8-tetrahydrophthalazin-1(2H)-one], the Ki was determined as 1.3 nM.
On to `O=C(CN1CCN(C(=O)c2cc(Cc3n[nH]c(=O)c4c3CCCC4)ccc2F)CC1)N1CCCC1` [Example 537, 4-(4-fluoro-3-{[4-(2-oxo-2-pyrrolidin-1-ylethyl)piperazin-1-yl]carbonyl}benzyl)-5,6,7,8-tetrahydrophthalazin-1(2H)-one], for which the Ki was determined as 2.5 nM.
With `NC(=O)c1cccc(-c2cc(CCc3n[nH]c(=O)c4c3CCCC4)ccc2F)c1` [Example 272, 2′-fluoro-5′-(2-(4-oxo-3,4,5,6,7,8-hexahydrophthalazin-1-yl)ethyl)-1,1′-biphenyl-3-carboxamide], the Ki turned out to be 204 nM.
As for `O=c1[nH]nc(Cc2cccc(-c3cccc(CNC4CCCC4)c3)c2)c2c1CCCC2` [Example 128, 4-((3′-((cyclopentylamino)methyl)-1,1′-biphenyl-3-yl)methyl)-5,6,7,8-tetrahydrophthalazin-1(2H)-one], the Ki is 43 nM.
In the case of `CC(Cc1n[nH]c(=O)c2c1CCCC2)c1cccc(C(=O)O)c1` (stereo not shown) [Example 288, 3-(1-methyl-2-(4-oxo-3,4,5,6,7,8-hexahydrophthalazin-1-yl)ethyl)benzoic acid], the Ki was 431 nM.
The result for `O=c1[nH]nc(Cc2cccc(-c3cccc(CNC4CCC4)c3)c2)c2c1CCCC2` [Example 131, 4-((3′-((cyclobutylamino)methyl)-1,1′-biphenyl-3-yl)methyl)-5,6,7,8-tetrahydrophthalazin-1(2H)-one] reads 32 nM.
The result for `O=C(c1ccccn1)N1CCN(C(=O)c2cc(Cc3n[nH]c(=O)c4c3NCCC4)ccc2F)CC1` [Example 665, 8-(4-fluoro-3-{[4-(pyridin-2-ylcarbonyl)piperazin-1-yl]carbonyl}benzyl)-2,3,4,6-tetrahydropyrido[2,3-d]pyridazin-5(1H)-one] reads 1.1 nM; that for `O=C(c1cccc(Cc2n[nH]c(=O)c3c2CCCC3)c1)N1CCN(CCOCCO)CC1` [Example 443, 4-(3-((4-(2-(2-hydroxyethoxy)ethyl)piperazin-1-yl)carbonyl)benzyl)-5,6,7,8-tetrahydrophthalazin-1(2H)-one], 16 nM; that for `O=C(NC1CCN(C(=O)c2cc(Cc3n[nH]c(=O)c4c3NCCC4)ccc2F)CC1)c1ccco1` [Example 750, N-(1-{2-fluoro-5-[(5-oxo-1,2,3,4,5,6-hexahydropyrido[2,3-d]pyridazin-8-yl)methyl]benzoyl}piperidin-4-yl)-2-furamide], 1.1 nM.
`O=C(CCC(=O)c1ccc(Oc2ccccc2)cc1)Nc1cccc(CCc2n[nH]c(=O)c3c2CCCC3)c1` [Example 321, 4-oxo-N-(3-(2-(4-oxo-3,4,5,6,7,8-hexahydrophthalazin-1-yl)ethyl)phenyl)-4-(4-phenoxyphenyl)butanamide]: the inhibition constant Ki turned out to be 223 nM.
As to `O=c1[nH]nc(Cc2ccc(F)c(Cl)c2)c2c1CCCN2` [Example 450, 8-(3-chloro-4-fluorobenzyl)-2,3,4,6-tetrahydropyrido(2,3-d)pyridazin-5(1H)-one], the Ki is 122 nM.
Consider `O=C(NC1CCN(C(=O)c2ccc3[nH]cnc3c2)CC1)c1cc(Cc2n[nH]c(=O)c3c2NCCC3)ccc1F` [Example 713, N-[1-(1H-benzimidazol-5-ylcarbonyl)piperidin-4-yl]-2-fluoro-5-[(5-oxo-1,2,3,4,5,6-hexahydropyrido[2,3-d]pyridazin-8-yl)methyl]benzamide], for which the Ki worked out at 1.8 nM.
As to `CCCC(=O)Nc1ccc(Cl)c(Cc2n[nH]c(=O)c3c2CCCC3)c1` [Example 99], the Ki was 44 nM.
On to `O=C(Nc1cc(Cc2n[nH]c(=O)c3c2CCCC3)ccc1F)NC1CCCC1` [Example 540, N-cyclopentyl-N′-{2-fluoro-5-[(4-oxo-3,4,5,6,7,8-hexahydrophthalazin-1-yl)methyl]phenyl}urea], for which the Ki was 204 nM.
On to `O=C1CCCN1c1cc(Cc2n[nH]c(=O)c3c2CCCC3)cc[n+]1[O-]` [Example 133, 4-((1-oxido-2-(2-oxopyrrolidin-1-yl)pyridin-4-yl)methyl)-5,6,7,8-tetrahydrophthalazin-1(2H)-one], for which the Ki came out at 724 nM.
The result for `O=c1[nH]nc(Cc2ccc(F)c(Br)c2)c2ncccc12` [Example 415] reads 3200 nM.
As for `CCN(CCN(C)C)C(=O)c1cccc(Cc2n[nH]c(=O)c3c2CCCC3)c1` [Example 418, N-(2-(dimethylamino)ethyl)-N-ethyl-3-((4-oxo-3,4,5,6,7,8-hexahydrophthalazin-1-yl)methyl)benzamide], the Ki is 34 nM.
As for `O=C(O)CNC(=O)Nc1cc(Cc2n[nH]c(=O)c3c2CCCC3)ccc1F` [Example 625, N-[({2-fluoro-5-[(4-oxo-3,4,5,6,7,8-hexahydrophthalazin-1-yl)methyl]phenyl}amino)carbonyl]glycine], the Ki is 21 nM.
On to `O=C1CCN1c1ccc(Cc2n[nH]c(=O)c3c2CCCC3)cn1` [Example 105, 4-((6-(2-oxoazetidin-1-yl)pyridin-3-yl)methyl)-5,6,7,8-tetrahydrophthalazin-1(2H)-one], for which the inhibition constant Ki was determined as 725 nM.
For the compound `Cc1cc(NC(=O)c2cccc(Cc3n[nH]c(=O)c4c3CCCC4)c2)ccc1F` [Example 341, N-(4-fluoro-3-methylphenyl)-3-((4-oxo-3,4,5,6,7,8-hexahydrophthalazin-1-yl)methyl)benzamide], the Ki turned out to be 154 nM.
`Cc1nc2cc(C(=O)N3CCN(C(=O)c4cc(Cc5n[nH]c(=O)c6c5NCCC6)ccc4F)CC3)ccc2[nH]1` [Example 654]: the Ki was found to be 1.2 nM.
For `CCNC(=O)c1ccc(Cc2n[nH]c(=O)c3c2CCCC3)cn1` [Example 94, N-ethyl-5-((4-oxo-3,4,5,6,7,8-hexahydrophthalazin-1-yl)methyl)pyridine-2-carboxamide], the inhibition constant Ki amounted to 856 nM.
The result for `O=C(c1ccc(Cl)cn1)N1CCN(C(=O)c2cc(Cc3n[nH]c(=O)c4c3NCCC4)ccc2F)CC1` [Example 641] reads 1.3 nM; that for `Cc1ccsc1C(=O)Nc1cccc(Cc2n[nH]c(=O)c3c2CCCC3)c1` [Example 198, 3-methyl-N-(3-((4-oxo-3,4,5,6,7,8-hexahydrophthalazin-1-yl)methyl)phenyl)thiophene-2-carboxamide], 403 nM.
Regarding `Cc1noc(C)c1C(=O)Nc1cccc(Cc2n[nH]c(=O)c3c2CCCC3)c1` [Example 209, 3,5-dimethyl-N-(3-((4-oxo-3,4,5,6,7,8-hexahydrophthalazin-1-yl)methyl)phenyl)isoxazole-4-carboxamide], the Ki stood at 395 nM.
With `O=C(NC1CC1)c1cccc(Cc2n[nH]c(=O)c3c2CCCC3)n1` [Example 83, N-cyclopropyl-6-((4-oxo-3,4,5,6,7,8-hexahydrophthalazin-1-yl)methyl)pyridine-2-carboxamide], the Ki was determined as 126 nM.
As to `O=C(c1ccccn1)N1CCN(C(=O)c2cc(Cc3n[nH]c(=O)c4c3CCCC4)ccc2F)CC1` [Example 730, 4-(4-fluoro-3-{[4-(pyridin-2-ylcarbonyl)piperazin-1-yl]carbonyl}benzyl)-5,6,7,8-tetrahydrophthalazin-1(2H)-one], the Ki came out at 1.3 nM.
For `CCN(CCNC(=O)N1CCCC1)C(=O)c1cc(Cc2n[nH]c(=O)c3c2CCCC3)ccc1F` [Example 743, N-[2-(ethyl{2-fluoro-5-[(4-oxo-3,4,5,6,7,8-hexahydrophthalazin-1-yl)methyl]benzoyl}amino)ethyl]pyrrolidine-1-carboxamide], the inhibition constant Ki is 2.7 nM.
As for `O=C(Nc1cccc(CCc2n[nH]c(=O)c3c2CCCC3)c1)C1CCCN(C(=O)OCc2ccccc2)C1` (stereo not shown) [Example 322, benzyl 3-(((3-(2-(4-oxo-3,4,5,6,7,8-hexahydrophthalazin-1-yl)ethyl)phenyl)amino)carbonyl)piperidine-1-carboxylate], the inhibition constant (Ki) was found to be 556 nM.
The result for `CCCCN(Cc1ccccc1)C(=O)c1cccc(Cc2n[nH]c(=O)c3c2CCCC3)c1` [Example 422, N-benzyl-N-butyl-3-((4-oxo-3,4,5,6,7,8-hexahydrophthalazin-1-yl)methyl)benzamide] reads 105 nM.
On to `CO[C@H](C(=O)Nc1cccc(Cc2n[nH]c(=O)c3c2CCCC3)c1)c1ccccc1` [Example 152, (2S)-2-methoxy-N-(3-((4-oxo-3,4,5,6,7,8-hexahydrophthalazin-1-yl)methyl)phenyl)-2-phenylacetamide], for which the Ki is 741 nM.
The result for `Cc1ccc(NC(=O)c2cccc(Cc3n[nH]c(=O)c4c3CCCC4)c2)c(F)c1` [Example 338, N-(2-fluoro-4-methylphenyl)-3-((4-oxo-3,4,5,6,7,8-hexahydrophthalazin-1-yl)methyl)benzamide] reads 136 nM; that for `Cc1ccc(NC(=O)c2cccc(Cc3n[nH]c(=O)c4c3CCCC4)c2)cc1Cl` [Example 342, N-(3-chloro-4-methylphenyl)-3-((4-oxo-3,4,5,6,7,8-hexahydrophthalazin-1-yl)methyl)benzamide], 134 nM; that for `CCCOc1ccc(NC(=O)c2cccc(Cc3n[nH]c(=O)c4c3CCCC4)c2)cc1` [Example 355, 3-((4-oxo-3,4,5,6,7,8-hexahydrophthalazin-1-yl)methyl)-N-(4-propoxyphenyl)benzamide], 92 nM.
The result for `CN1CCC(CNC(=O)c2cccc(Cc3n[nH]c(=O)c4c3CCCC4)c2)CC1` [Example 79, N-((1-methylpiperidin-4-yl)methyl)-3-((4-oxo-3,4,5,6,7,8-hexahydrophthalazin-1-yl)methyl)benzamide] reads 18 nM.
As for `O=C(c1ccc(F)cc1)C1CCN(C(=O)c2cc(Cc3n[nH]c(=O)c4c3NCCC4)ccc2F)CC1` [Example 691, 8-(4-fluoro-3-{[4-(4-fluorobenzoyl)piperidin-1-yl]carbonyl}benzyl)-2,3,4,6-tetrahydropyrido[2,3-d]pyridazin-5(1H)-one], the Ki amounted to 2.1 nM.
